Earlier results, collected in article PMC6237330, “Bioactivity of selected materials for coffee substitute” (PLoS ONE, 2018).

How the values were obtained:
[1] = tested on: mice; set-up: method as in PMID 20237914; details: 2 mg furan/kg bwt
[2] = tested on: animals; set-up: method as in earlier work; details: in the laboratory

SMILES	Tumor induction [1]	Tumors in animals [2]
c1ccoc1 [furan]	may induce tumor	
C=CC(N)=O [ACR, acrylamide]		causes tumors in animals
